Laboratory results taken from patent publication US9458101B2 (priority 2009, dated 2016).

What was measured:
[1] = tested on: CEM cells; assay: Viability of 3-D CEM cell cultures in Hollow Fiber Bioreactor (HFB), trypan blue; assay type: cell-based, Human; conditions: for viability of cell cultures: samples analysed by HPLC; for number of viable cells: HFB, decreased from 10^9 cells/mL, 1000 nM, within 72 h; for viability of cells in HFB: after 3 days of treatment
Description: CEM cells (American Type Culture Collection, Manassas, Va.) were maintained in tissue culture flasks and cultured as monolayer in 20 mL of RPMI media containing 10% Fetal Bovine Serum (FBS). When the number of cells in the culture flask reached 5-6×10^6 cells/mL the culture was harvested and then inoculated into six Hollow Fiber Bioreactors (HFB, FiberCells System, Frederick, Md.) and were continuously cultured in 37° C. and 5% CO2. HFB consists of a single, hydrophylic and polysulfone fiber with 0.1 μm diameter pores. The media circulating within the HFB cartridge and polysulphone tubing, at flow rate of 14 mL/min, brings oxygen and nutrients to cells and removes CO2 and other waste. Collagen solution was used to create an extra cellular matrix between the cells and the fiber. The polysulphone fiber was coated with protein by flushing with 10 mL of coating solution containing 1 mg collagen per 1 mL Phosphate Buffered Saline (PBS). The pH was maintained in the extra-capillary space throughout the duration of experiments between 6.8 and 7.0. Due to the perfusion the HFB absorbed sufficient oxygen from the reservoir with fresh media to keep cells alive. The perfusion medium was changed weekly when the glucose level reached 2 g/L measured with a glucometer.
Viability was assessed using trypan blue (K. Takahashi, G. Loo, Biochem. Pharm. 67 (2004) 315-324). Briefly, CEM cells were harvested from HFB, seeded in 6 well microplates and exposed to 0.4% (w/v) trypan blue dye solution. Cell number was determined manually with a hemacytometer chamber (Hausser Scientific, Horsham, Pa.).
Approximately 4×10^4 CEM cells/ml were treated on culture plates and placed for the 72 h incubation with (2-16) and (28-38) derivatives. All compounds were used for in vitro experiments and then the derivatives were selected for HFB studies to treat 10^9 CEM cells/mL in the 3-D cultures. The cells were treated 4 weeks after the cells' inoculation in the HFB. After 72 h, the growth was inhibited over 50% for 20 nM and higher concentrations in cells treated with (6), (13), (28) and (35).
CEM cells, American Type Culture Collection (Manassas, Va.), were maintained in tissue culture flasks and cultured as monolayer in 20 ml of RPMI media containing 10% Fetal Bovine Serum (FBS) and divided from 5×10^5 cells/mL to 2.5×10^4 cells/mL two times per week. When the number of the cells in the culture flask reached 5-6×10^6 cells/ml the culture was harvested and then inoculated into six Hollow Fiber Bioreactors (HFB, FiberCells System Inc., Frederick, Md.) and then continuously cultured in 37° C. and 5% CO2. The HFB consists of a single, hydrophylic and polysulfone fiber with 0.1 μm diameter pores. The media circulate within the HFB cartridge and polysulphone tubing, at flow rate of 14 mL/min, bringing oxygen and nutrients to cells and removing CO2 and other waste. Collagen solution was used to create an extracellular matrix between cells and fiber. The polysulfone fiber was coated with protein by flushing with 10 mL of coating solution containing 1 mg collagen per 1 mL Phosphate Buffered Saline (PBS). In this manner, CEM cells growing originally in suspension build up a 3-D solid tumor. During 4 weeks of culturing, the media were replaced each week.
The number of cells was determined using Trypan blue (Sigma-Aldrich, Oakville, ON) exclusion method (K. Takahashi, G. Loo, Biochem. Pharmacol. 67 (2004) 315-324). Briefly, CEM cells were harvested from HFB, seeded in 6 well microplates and exposed to 0.4% (w/v) trypan blue dye solution. Cell number was determined manually with a hemacytometer chamber (Hausser Scientific, Horsham, Pa.).

[2] = tested on: A549 (Human lung carcinoma); assay: Cytotoxicity testing (MTS) on A549; assay type: cell-based
Method in brief: (§1)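 Cells plated at optimal densities set by preliminary MTS growth tests (72 and 96 h) and exposed to compound dilutions whose concentrations were checked by absorbance-derived extinction coefficients. Viability read by MTS; data fitted to a two-plateau dose-response model normalized to Itop−Ibot.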

[3] = tested on: HeLa (Human cervical carcinoma); assay: Cytotoxicity testing (MTS) on HeLa; assay type: cell-based
Method in brief: as §1

[4] = tested on: MCF-7 (Human mammary gland adenocarcinoma); assay: Cytotoxicity testing (MTS) on MCF-7; assay type: cell-based
Method in brief: as §1

[5] = tested on: CEM (Human T-lymphoblastoid from ALL); assay: Cytotoxicity testing (MTS) on CEM; assay type: cell-based
Method in brief: as §1

[6] = tested on: M010B (Human glioma); assay: Cytotoxicity testing (MTS) on M010B; assay type: cell-based
Description: (§2) Cell lines used were A549 (Human lung carcinoma), HeLa (Human cervical carcinoma), MCF-7 (Human mammary gland adenocarcinoma), CEM (Human T-lymphoblastoid from ALL (Acute lymphoblastic leukemia)), M010B (Human glioma), M006X (Human glioma) and Jurkat (Human T-cell leukemia).
(§3) A series of dilutions were prepared and a wavelength scan of the diluted solution was used to determine the wavelength of maximum absorbance for each compound. Five standardized drug concentrations were scanned at this pre-determined wavelength to obtain an estimate of the compound's extinction coefficient.
(§4) A primary MTS assay was used to test the optimal number of cells for cytotoxicity assays. Cells were trypsinized, counted and introduced into seven lanes of a 96-well plate at different cell numbers (eight replicates per lane). Optimal cell numbers were determined after 72 and 96 hours of growth and were used in subsequent cytotoxicity assays. […] Cell viability was determined using the Cell Titer 96 AQueous One Solution Cell Proliferation Assay (Promega, U.S.A.).
(§5) Fits were performed using a dose-response model ideal for data showing an initial response plateau, a transition region, and a final response plateau.
(§6) [formula] […] Itop is the response obtained at very low/no drug concentration. The data and all parameters were normalized to Itop−Ibot, a measure of the maximum effect of the drug.

[7] = tested on: M006X (Human glioma); assay: Cytotoxicity testing (MTS) on M006X; assay type: cell-based
Description: as §2, §3, §4, §5, §6

[8] = tested on: A549, HeLa, MCF-7 and CEM cell lines; assay: Cytotoxicity, mean over A549, HeLa, MCF-7 and CEM cell lines; conditions: for IC50 [log10 M] (mean logIC50): mean over A549, HeLa, MCF-7 and CEM cell lines
Method in brief: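 MTS viability (CellTiter 96 AQueous One) on A549, HeLa, MCF-7 and CEM cells seeded at pre-optimized densities from 72 and 96 h growth tests. Responses normalized to Itop−Ibot, with Itop the response at very low/no drug; value is the mean across the four lines.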

[9] = tested on: CEM cells; assay: 19F MRI signal intensity of treated 3-D CEM cultures in HFB (cell number with fluorine uptake); assay type: cell-based, Human; conditions: for mean CEM cell density in the region with lower densities / mean number of cells in the region with higher cell densities: MRI; for mean cell concentration corresponding to mean 19F SI: cells with fluorine derivative uptake
Description: All MRI experiments were performed using a 9.4 Tesla with 21 cm bore magnet (Magnex, U.K.) and TMX console (NRC-IBD, Canada). ^19F MR images were acquired using double (^19F and ^1H) tuned transmit/receive radio frequency (RF) volume coil operating at 376 MHz and 400 MHz corresponding to ^19F and ^1H Larmour frequency at 9.4 Tesla, respectively. ^1H MR images were collected in the same imaging session that ^19F MRI. Proton MR provided anatomical images of the culture. The MRI images monitored the localization of cells around the fiber in HFB as well as the volume of the cells. Moreover, ^19F MRI selectively visualizes only intracellular fluorine uptake with no background, therefore allows cell count. The cells before and after treatment with (6), (13), (28) and (35) were imaged with ^1H MRI, this allowed changes to be observed in the 3-D cell aggregation. The cells treated with 20 nM (28) and (35) were also imaged with ^19F MRI to measure fluorine content using ^19F NMR signal intensity (SI) in each HFB treated with (28) and (35). […] To obtain the calibration curves (for each derivative separately) the phantoms consisting of HFB tubes filled with 1 nM, 10 nM, 20 nM, 100 nM, 500 nM and 1000 nM of (28) or (35) and 10^3 cells, 10^4 cells, 10^5 cells, 10^6 cells, 10^7 cells, 10^8 cells and 10^9 cells were used. The linear regression was used to find the SI dependence on cell numbers. The cell numbers estimated from ^19F MR imaging were compared to the cell viability obtained from trypan blue assays. […] One 1 mm slice was acquired with a matrix size of 256×256 and a field of view of 3×3 cm for both ^19F and ^1H.

[10] = tested on: CEM cells; assay: HPLC-UV profile of treated CEM cells; assay type: cell-based, Human; conditions: for expression of MHC (class I) receptor, HPLC peak intensity: eluted at 53 min; for apoptotic protein signal, HPLC peak intensity: eluted at 57 min
Description: Digested cell samples were fractionated with a Gold HPLC chromatograph system equipped with a Gold 166 Ultra Violet (UV) Detector and 32-Karat software (Beckman-Coulter, Mississauga, ON, Canada). For reversed-phase HPLC, a Vydac 218 TP54 Protein & Peptide C18 analytical column, 300 Å pore size, 0.46 cm×25 cm (Separation Group, Hesperia, Calif., U.S.A.) was used. The chromatograph was equipped with a Rheodyne injector (5 μL). UV detection was performed at 245 nm. Eluent A consisted of 5% acetonitrile (ACN) water solution and eluent B of 0.01% trifluoroacetic acid in 95% ACN water solution. A linear gradient from 5 to 70% ACN was applied over 60 min.
It was assumed that signals eluted at 30-35 min were unreacted derivatives with variable intensity of 0.1 V for (28) and (35) as well as 0.35 V for (13) and 0.9 V for (6). […] An additional signal eluted at 57 min occurred in samples treated with (35) and (28) (FIGS. 10D and 10E). The signals at 57 min differ at about 5 min in elution present one from cascade of apoptotic protein in treated cells. The peak intensity of 0.3 V (28) and 0.2 V (35) corresponded to viability of cells 38% (28) and 35% (35) and unreacted derivatives 0.1 (28), 0.1 (35), respectively. The undefined additional peaks with very low intensities, less then 0.05 V, are the metabolites of derivatives or unreacted compounds.

Row | SMILES | viability of cell cultures [1] | Fraction of cells that survive at the highest drug concentrations (Ibot) [2] | logIC50 [2] | Fraction of cells that survive at the highest drug concentrations (Ibot) [3] | logIC50 [3] | Fraction of cells that survive at the highest drug concentrations (Ibot) [4] | logIC50 [4] | Fraction of cells that survive at the highest drug concentrations (Ibot) [5] | logIC50 [5] | Fraction of cells that survive at the highest drug concentrations (Ibot) [6] | logIC50 [6] | Fraction of cells that survive at the highest drug concentrations (Ibot) [7] | logIC50 [7] | IC50 [log10 M] (mean logIC50) [8] | number of viable cells [1] | viability of cells in HFB [1] | mean CEM cell density in the region with lower densities [9] | mean number of cells in the region with higher cell densities [9] | mean cell concentration corresponding to mean 19F SI [9] | expression of MHC (class I) receptor, HPLC peak intensity [10] | other results
1 | CCOc1c(OC)c(OC)cc2c1-c1ccc(OC)c(=O)cc1[C@@H](NC(C)=O)CC2 [Compound 6, N-[(7S)-1-(ethoxy)-2,3,10-trimethoxy-9-oxo-5,6,7,9-tetrahydrobenzo[α]heptalen-7-yl]acetamide] | 50%±4 | 0.249 ± 0.030 | −7.83 ± 0.10 log10 M | 0.089 ± 0.026 | −7.89 ± 0.06 log10 M | 0.605 ± 0.015 | −7.42 ± 0.13 log10 M | −0.062 ± 0.026 | −8.64 ± 0.08 log10 M | 0.108 ± 0.013 | −7.94 ± 0.04 log10 M | 0.039 ± 0.011 | −8.41 ± 0.08 log10 M | −7.95 ± 0.09 log10 M | – | – | – | – | – | – | average IC50 values compared with colchicine ([8]; average values of Table 3): stronger than colchicine
2 | COc1cc2c(c(OCc3cccnc3)c1OC)-c1ccc(OC)c(=O)cc1C(NC(=O)CNC(=O)C(F)(F)F)CC2 (stereo not drawn) [Compound 35] | 35%±5 | – | – | – | – | – | – | – | – | – | – | – | – | – | 2.9×10^8 cells/mL | 30% | 1.4×10^8 cells/mL | 4.8×10^8 cells/mL | 6.9×10^8 cells/mL | 0.7 V | apoptotic protein signal, HPLC peak intensity [10]: 0.2 V
3 | COc1cc2c(c(-c3cccnc3)c1OC)-c1ccc(OC)c(=O)cc1[C@@H](NC(C)=O)CC2 [Compound 13, N-[(7S)-2,3,10-trimethoxy-9-oxo-1-((pyridin(3))yl)-5,6,7,9-tetrahydrobenzo[α]heptalen-7-yl]acetamide] | 45%±2 | 0.218 ± 2.644 | −4.51 ± 0.32 log10 M | 0.059 ± 0.059 | −5.33 ± 0.14 log10 M | 0.364 ± 0.038 | −5.19 ± 0.09 log10 M | −0.026 ± 0.039 | −5.50 ± 0.10 log10 M | 0.305 ± 0.053 | −4.90 ± 0.09 log10 M | 0.055 ± 0.046 | −5.67 ± 0.12 log10 M | −5.13 ± 0.17 log10 M | – | – | – | – | – | 0.05 V | –
4 | CCOc1c(OC)c(OC)cc2c1-c1ccc(OC)c(=O)cc1[C@@H](NC(=O)CNC(=O)C(F)(F)F)CC2 [Compound 28] | 38%±4 | – | – | – | – | – | – | – | – | – | – | – | – | – | 3.45×10^8 cells/mL | 35% | 2.4×10^8 cells/mL | 3.5×10^8 cells/mL | 6.03×10^8 cells/mL | – | apoptotic protein signal, HPLC peak intensity [10]: 0.3 V
